Common to all, as to type: in vivo
In test [1] the test system is Erysiphe graminis tritici (powdery mildew). Description: Test 1 greenhouse foliar spray screen, powdery mildew on wheat. Particulars: Blumeria graminis, foliar, Test 1, foliar spray on wheat; disease control rating at 400 ppm / 100 ppm; read-out: POWD MDEW.
Test [2] relates to Pyricularia oryzae (rice blast). Description: whole plant or invertebrate. The note with it: for pest or weed control at 400 ppm: Pyricularia oryzae, foliar, read-out: RICE BLAST, Test 1, foliar spray on rice, disease control rating at 400 ppm / 100 ppm.
Test [3] concerns Puccinia recondita tritici (leaf rust). As to the kind of experiment: Test 1 greenhouse foliar spray screen, leaf rust on wheat. The note with it: Puccinia recondita, foliar, Test 1, foliar spray on wheat; disease control rating at 400 ppm / 100 ppm.
The test system of test [4] is Botrytis cinerea (gray mold). Description: Test 1 greenhouse foliar spray screen, gray mold on grape berries. Particulars: Botrytis cinerea, foliar; Test 1, spray on grape berries; disease control rating at 400 ppm / 100 ppm.
The subject of test [5] is Pseudoperonospora cubensis (downy mildew). Description: Test 1 greenhouse foliar spray screen, downy mildew on squash. Particulars: for pest or weed control at 400 ppm: Pseudoperonospora cubensis, foliar, Test 1, foliar spray on squash, disease control rating at 400 ppm / 100 ppm, read-out: DOWN MDEW.
The test system of test [6] is Cercospora beticola (leaf spot). As to the kind of experiment: Test 1 greenhouse foliar spray screen, leaf spot on sugar beet. Particulars: Cercospora beticola; Test 1, foliar spray on sugar beet; disease control rating at 400 ppm / 100 ppm.
In test [7] the test system is Venturia inaequalis (apple scab). As to the kind of experiment: Test 1 greenhouse foliar spray screen, apple scab on apple seedling. The note with it: Venturia inaequalis; Test 1, foliar spray on apple seedling; disease control rating at 400 ppm / 100 ppm; read-out: APPL SCAB.
The test system of test [8] is Septoria tritici (leaf blotch). Description: Test 1 greenhouse foliar spray screen, leaf blotch on wheat. Particulars: Zymoseptoria tritici; Test 1, foliar spray on wheat; disease control rating at 400 ppm / 100 ppm; read-out: LEAF BLOT.
For test [9], the system named is southern armyworm (Spodopetra eridania Cramer). As to the kind of experiment: Mite/insect screen, SAW. Particulars: Spodoptera eridania, foliar, read-out: SAW RESULTS %. The method in brief: (§1)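 Compounds dissolved in 50:50 acetone/alcohol containing sulfonate/nonionic emulsifier blends, then diluted with water to the indicated concentrations. Leaves sprayed on both surfaces to runoff at 10 psi and dried one hour. Percent mortality scored after standard exposure periods.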

Test [10] relates to Twospotted spider mites (Tetranychus urticae Koch). Description: Mite/insect screen, SM. The note with it: for mortality at 200 ppm / mortality at 400 ppm: Tetranychus urticae, foliar, read-out: SM RESULTS %; for activity as miticides: summary statement in the description. The method in brief:
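Activity is expressed as percent mortality at the indicated spray concentrations. Plants are sprayed to runoff on upper and lower leaf surfaces with aqueous dilutions of an acetone/alcohol emulsifiable formulation, then dried for one hour.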

For test [11], the system named is melon aphids (Aphis gossypii Glover). Description: Mite/insect screen, MA. Particulars: Aphis gossypii, foliar, read-out: MA RESULTS %. The method in brief:
as §1

The subject of a further test is corn rootworm. Description: Mite/insect screen, CRW. Particulars: read-out: CRW RESULTS %. The method in brief: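 Compounds were dissolved in 50:50 acetone/alcohol containing sulfonate/nonionic emulsifier blends (23 g/L plus 13 g/L), then diluted with water to the test concentrations. Percent mortality was scored after standard exposure periods.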
[12] abbreviates: summary statement in the description.
Setting [13] is: percent mortality, rate 200 ppm, foliar spray on squash.
The mark [14] stands for this setting: percent mortality, CRW rate 12.00 ppm.
Setting [15] is: percent mortality, rate 400 ppm, foliar spray on squash.
The mark [16] stands for this setting: percent mortality, CRW rate 24.00 ppm.

Molecules are shown by their SMILES. Where two headings read alike, the source gives them in different places.

For the molecule `Fc1cccc2c(OCCc3cccc(C(F)(F)F)c3)ccnc12` [Example 203, 8-fluoro-4-[2-(3-(trifluoromethyl)phenyl)ethoxy]quinoline], the pest or weed control at 400 ppm lay in the range of 20 to 89% in test [1]; 90 to 100% in [2]; 90 to 100% in test [3]; 0 to 19% in test [4]; 90 to 100% in [5]; 20 to 89% in [6]. The pest or weed control at 400 ppm fell in the range of 20 to 89% in [7] and 90 to 100% in [8]. Further, the “activity against rice blast” value in test [2] (setting [12]) is recorded as “particularly excellent activity”. For the same molecule, in test [5] (setting [12]), the “activity against downy mildew” value is recorded as “particularly excellent activity”. Moreover, the mortality at 200 ppm in test [9] came to 10%; in test [10], 0%; in test [11], 100%. Also, the mortality at 400 ppm in test [9] was 0%; in test [10], 0%; in test [11] it was 90%. Also, the activity as miticides result in test [10] is “particularly excellent activity”. For the same molecule, the mortality at 12 ppm in the test on corn rootworm came to 0%. The mortality at 24 ppm with corn rootworm came to 0%.
`Clc1cccc2c(OCCc3ccccc3)ccnc12` [Example 207, 8-chloro-4-(2-phenylethoxy)quinoline]: the pest or weed control at 400 ppm lay in the range of 90 to 100% in test [1]; 90 to 100% in test [2]; 90 to 100% in [3]; 0 to 19% in [4]; 90 to 100% in [5]; 20 to 89% in [6]. Besides, the pest or weed control at 400 ppm in [7] lay in the range of 20 to 89%; in test [8] it was 90 to 100%. Also, the mortality at 200 ppm in test [9] (setting [13]), in test [10] (setting [13]) and in [11] (setting [13]) was 0% throughout. For the same molecule, in the test with corn rootworm (setting [14]), the mortality at 12 ppm was determined as 0%.
With `c1ccc(CCOc2ccnc3ccccc23)cc1` [Example 208, 4-(2-phenylethoxy)quinoline], the pest or weed control at 400 ppm was in the range of 90 to 100% in test [1]; 90 to 100% in test [2]; 90 to 100% in [3]; 0 to 19% in test [4]; 90 to 100% in test [5]; 20 to 89% in test [6]. The values for the pest or weed control at 400 ppm in test [7] and in test [8] were 0 to 19% and 20 to 89%, respectively. Besides, the mortality at 200 ppm in test [9] (setting [13]) came out at 0%; in test [10] (setting [13]), 10%; in test [11] (setting [13]) it was 10%. In the test with corn rootworm (setting [14]), the mortality at 12 ppm came out at 0%.
`Clc1ccc(CCOc2ccnc3ccccc23)cc1` [Example 211, 4-[2-(4-chlorophenyl)ethoxy]quinoline]: the pest or weed control at 400 ppm in [1] was 90 to 100%; in test [2], 90 to 100%; in test [3], 90 to 100%; in [4] it was 0 to 19%; in [5] it was 90 to 100%; in test [6] it was 90 to 100%. In addition, the pest or weed control at 400 ppm was in the range of 0 to 19% in test [7] and 90 to 100% in test [8]. The figures for the mortality at 200 ppm in test [9] (setting [13]), in test [10] (setting [13]) and in test [11] (setting [13]) were 0%, 10% and 40%, respectively. The mortality at 12 ppm with corn rootworm (setting [14]) is 0%.
As to `CC(Cc1ccccc1)Oc1ccnc2ccccc12` (stereo not drawn) [Example 213, 4-(1-methyl-2-phenylethoxy)quinoline], the pest or weed control at 400 ppm in [1] was in the range of 20 to 89%; in [2], 90 to 100%; in [3], 90 to 100%; in [4] it was 0 to 19%; in test [5] it was 90 to 100%; in test [6], 0 to 19%. Besides, the pest or weed control at 400 ppm in test [7] and in test [8] was 20 to 89% in each case. Also, the mortality at 200 ppm in [9] (setting [13]), in [10] (setting [13]) and in test [11] (setting [13]) was 0% each time. The mortality at 12 ppm in the test on corn rootworm (setting [14]) came to 0%.
With `CC(COc1ccnc2c(F)cccc12)c1ccccc1` (stereo not drawn) [Example 220, 4-(2-phenylpropoxy)-8-fluoroquinoline], the pest or weed control at 400 ppm lay within 90 to 100% in [1]; 20 to 89% in [2]; 90 to 100% in test [3]; 0 to 19% in test [4]; 90 to 100% in test [5]; 0 to 19% in test [6]. Also, the values for the pest or weed control at 400 ppm in [7] and in test [8] were 20 to 89% and 0 to 19%, respectively. Also, the mortality at 200 ppm in test [9] (setting [13]), in test [10] (setting [13]) and in test [11] (setting [13]) was 0% throughout. Also, the mortality at 400 ppm in [9] (setting [15]), in test [10] (setting [15]) and in test [11] (setting [15]) was 0% each time. Besides, the mortality at 12 ppm in the test with corn rootworm (setting [14]) came to 0%. Besides, in the test on corn rootworm (setting [16]), the mortality at 24 ppm was determined as 0%.
As to `Fc1ccc(CCOc2ccnc3c(F)cccc23)cc1` [Example 222, 8-fluoro-4-[2-(4-fluorophenyl)ethoxy]quinoline], the pest or weed control at 400 ppm in test [1] is 20 to 89%; in test [2], 20 to 89%; in test [3] it was 90 to 100%; in [4], 0 to 19%; in test [5], 90 to 100%; in [6] it was 20 to 89%. Besides, the pest or weed control at 400 ppm in test [7] and in [8] was 90 to 100% in each case. Further, the mortality at 200 ppm was found to be 0% in [9] (setting [13]), 0% in test [10] (setting [13]) and 50% in [11] (setting [13]). For the same molecule, the mortality at 400 ppm in [9] (setting [15]) came to 0%; in [10] (setting [15]) it was 0%; in [11] (setting [15]), 40%. The mortality at 12 ppm in the test on corn rootworm (setting [14]) turned out to be 0%. Also, in the test with corn rootworm (setting [16]), the mortality at 24 ppm is 0%.
For the molecule `COc1ccccc1CCOc1ccnc2ccccc12` [Example 229, 4-[2-(2-methoxyphenyl)ethoxy]quinoline], the pest or weed control at 400 ppm in [1] lay within 20 to 89%; in test [2], 90 to 100%; in [3] it was 90 to 100%; in test [4], 0 to 19%; in [5] it was 90 to 100%; in test [6], 0 to 19%. In addition, the figures for the pest or weed control at 400 ppm in [7] and in test [8] were 0 to 19% and 20 to 89%, respectively. For the same molecule, the mortality at 200 ppm came out at 0% in test [9] (setting [13]), 50% in test [10] (setting [13]) and 50% in [11] (setting [13]). In addition, the mortality at 400 ppm in test [9] (setting [15]), in test [10] (setting [15]) and in test [11] (setting [15]) was 0% in each case. Also, the mortality at 12 ppm in the test on corn rootworm (setting [14]) stood at 0%. Moreover, in the test on corn rootworm (setting [16]), the mortality at 24 ppm is 0%.
As to `Clc1ccc2c(OCCc3ccc(-c4ccccc4)cc3)ccnc2c1` [Example 230, 7-chloro-4-[2-(1,1'-biphenyl)-4-yl-ethoxy]quinoline], the pest or weed control at 400 ppm in [1] was in the range of 90 to 100%; in test [2], 0 to 19%; in test [3] it was 20 to 89%; in [4] it was 0 to 19%; in [5], 0 to 19%; in test [6], 0 to 19%. The pest or weed control at 400 ppm in test [7] and in [8] was 0 to 19% each time. Also, the mortality at 200 ppm in test [9] (setting [13]) came to 0%; in test [10] (setting [13]), 100%; in test [11] (setting [13]), 90%. In addition, the mortality at 400 ppm in [9] (setting [15]) was found to be 0%; in test [10] (setting [15]) it was 80%; in [11] (setting [15]), 0%. In addition, the activity as miticides result in test [10] is reported as “particularly excellent activity”. In addition, the mortality at 12 ppm with corn rootworm (setting [14]) amounted to 0%. Further, in the test with corn rootworm (setting [16]), the mortality at 24 ppm turned out to be 0%.

These data come from patent EP0326331B1, “Substituted quinolines and cinnolines” (Dow AgroSciences LLC, priority 1988, dated 1989).
